The values below come from patent US20240252514A1, “NEUROACTIVE STEROID FOR THE TREATMENT OF MILD COGNITIVE IMPAIRMENT ASSOCIATED WITH PARKINSON'S DISEASE” (SAGE THERAPEUTICS, INC., priority 2021, published 2024).

Entries after “also recorded” stand apart in the source; their conditions may differ.

Format in all cases: in vivo, human
Data set [1] relates to patients suffering from Mild Cognitive Impairment due to Parkinson's Disease (PD-MCI). Nature of the data set: Safety and tolerability (adverse events), open label study. Particulars: 3 mg oral daily for 14 days, follow-up to Day 28. The method, then: (§1) The safety and tolerability of Compound 1 and its effects on cognitive, neuropsychiatric, and motor symptoms in patients suffering from Mild Cognitive Impairment due to Parkinson's Disease (PD-MCI) was evaluated in an open label study. Eligible participants with a confirmed diagnosis of idiopathic PD by 2015 Movement Disorder Society (MDS) criteria (Berardelli et al., EFNS/MDS-ES/ENS recommendations for the diagnosis of Parkinson's disease. Eur J Neurol. 2013; 20:16-34) at Screening and who met MDS Task Force Criteria for MCI in PD (excluding requirement for UK PD Brain Bank diagnostic criteria) received 3.0 mg of Compound 1 (oral dose) daily for 14 days. Participants were instructed to take the daily dose of Compound 1 in the morning within 1 hour of initiating a meal containing approximately 30 g of fat. The study protocol was as follows and is depicted in FIG. 1.
At scheduled visits during the Treatment Period, participants completed the mobile device tasks under staff supervision. At scheduled clinic visits during the Treatment Period, safety, efficacy, and PK procedures were performed. In addition to weekly clinic visits, study staff contacted participants by telephone on Day 4 to document any TEAEs and/or changes in concomitant medications.
Participants were contacted by telephone on Day 21 to document any AEs and/or changes in concomitant medications. Participants returned to the clinic on Day 28 (±2 days) for a follow-up visit.
The Primary objective of the study was to assess (1) the percentage of Participants With at Least One Treatment-Emergent Adverse Event (TEAE) (Time Frame: Up to Day 28).

The test system is the same in data set [2]. The experiment in a line: Tests of Executive Functioning (MTT, OTS, SWM, DSST, 2-Back), open label study. The method, then: as §1
(§2) Beginning on Day 1 and continuing through Day 14, participants self-administered 3.0 mg Compound 1 (as six 0.5-mg oral tablets), once per day in the morning within 1 hour after initiating a meal containing approximately 30 g of fat, in accordance with the guidelines provided in a nutritional information brochure. Participants continued to complete daily assessments of cognitive performance and sleep via mobile device either remotely (at home), or in the clinic at scheduled visits and tracked Compound 1 dosing and predose food intake in a participant diary.
(§3) Eight patients (male and female) aged 50 to 75 years old with mild cognitive impairment due to Parkinson's disease received 3 mg as oral tablets of Compound 1 daily for 2-weeks.
The tests of Executive Functioning included (1) Multitasking Test (MTT), which assesses how well the subject manages conflicting information; (2) One Touch Stockings of Cambridge (OTS), which assesses how well the subject plans, holds onto, and manipulates information to solve a puzzle; (3) Spatial Working Memory (SWM), which assesses how well the subject develops and uses a strategy to find hidden information; (4) Digit Symbol Substitution Task (DSST), which assesses how efficiently can the subject complete a demanding task (daily measure); and (5) Two-Back Test (NBX), which asks is the symbol the same as that shown two symbols ago.

For data set [3] the test system is unchanged. Nature of the data set: Tests of Learning and Memory (PAL, PRM, Verbal Recognition Memory, Spatial Span), open label study. The method, then: as §1, §2, §3
The tests of Learning and Memory included Paired Associates Learning (PAL), which assesses how well the subject remembers the location of hidden objects; Pattern Recognition Memory (PRM), which assesses how well the subject remembers a pattern; and Verbal Recognition Memory […], which assesses how well the subject stores and retrieves verbal information.

The test system is the same in data set [4]. The experiment in a line: Tests of Attention and Psychomotor Performance (RTI, PVT), open label study. The method, then:
as §1, §2, §3
The tests of Attention and Psychomotor Performance included Reaction Time (RTI), which assesses how fast the subject can respond to a stimulus (weekly measure); Psychomotor Vigilance Task (PVT), which assesses how fast can the subject respond to a stimulus (daily measure).

The test system is the same in data set [5]. Nature of the data set: Tests of Social Cognition (ERT, EBT), open label study. Particulars: 3 mg oral daily for 14 days, vs baseline, Clinic/Weekly. The method, then:
as §1
Beginning on Day 1 and continuing through Day 14, participants self-administered 3.0 mg Compound 1 (as six 0.5-mg oral tablets), once per day in the morning within 1 hour after initiating a meal containing approximately 30 g of fat, in accordance with the guidelines provided in a nutritional information brochure. […]

The mark [6] stands for this setting: PD-MCI patients, 3 mg oral daily for 14 days, vs baseline, Clinic/Weekly.
Setting [7] is: 3 mg oral daily for 14 days, vs baseline, Clinic/Weekly.

For `C[C@H](CC[C@](C)(O)C(F)(F)F)[C@H]1CC[C@H]2[C@@H]3CC=C4C[C@@](C)(O)CC[C@]4(C)[C@H]3CC[C@]12C` [Compound 1], in data set [1], the Serious adverse events result is “no serious adverse events”, the Tolerability entry was “generally well tolerated” and the “Treatment emergent adverse events related to the compound” value was “no treatment emergent adverse events were determined to be related to Compound 1”. In data set [2] (setting [6]), the “Trend, Executive Functioning: 2-Back” value is recorded as “Improvement”; the “Trend, Executive Functioning: Multitasking” value is given as “Improvement”; the “Trend, Executive Functioning: One Touch Stockings” value was “Improvement”; the “Trend, Executive Functioning: Spatial working Memory” value is “Improvement”. For the same compound, the “Trend, Executive Functioning: DSST” value in data set [2] (PD-MCI patients, 3 mg oral daily for 14 days, vs baseline, Mobile/Daily) is “Improvement”. Moreover, in data set [2] (PD-MCI patients, 3 mg oral daily, during 14 days of treatment, vs baseline (FIGS. 2-3)), the “Performance in the cognitive domain of executive function (five tests, overall)” value is listed as “performance improvements from baseline; also recorded: improved performance”. For the same compound, the “DSST improvement over baseline” value in data set [2] (PD-MCI subjects, 3 mg oral daily, Treatment Day 14 (FIG. 3)) is ~27%. Further, in data set [3] (setting [7]), the “Trend, Learning and Memory: Paired Associates” value was “Improvement”; the “Trend, Learning and Memory: Pattern recognition” value is recorded as “Improvement”; the “Trend, Learning and Memory: Spatial Span” value was “Neutral”; the “Trend, Learning and Memory: Verbal Memory” value is listed as “Improvement”. The “Performance in the domains of learning and memory (overall)” value in data set [3] (3 mg oral daily, 14 days, vs baseline (FIGS. 4 and 5)) is listed as “improved performance from baseline”. Besides, the “Trend, Attention & Psychomotor Speed: Reaction Time” value in data set [4] (setting [7]) was “Neutral”. Moreover, the “Trend, Attention & Psychomotor Speed: Psychomotor Vigilance” value in data set [4] (3 mg oral daily for 14 days, vs baseline, Mobile/Daily) is given as “Neutral”. In data set [4] (3 mg oral daily, 14 days (FIG. 6)), the “Performance in tests of attention and psychomotor speed (overall)” value was “neutral results; also recorded: no appreciable change”. Also, in data set [5], the “Trend, Social Cognition: Emotional Bias” value is given as “Improvement” and the “Trend, Social Cognition: Emotional Recognition” value was “Neutral”.
